Data: paper PMC8826081, “Three-Carbon Linked Dihydroartemisinin-Isatin Hybrids: Design, Synthesis and Their Antiproliferative Anticancer Activity” (Frontiers in Pharmacology, 2022)

Key:
in vitro = details: human
Method: (§1) 3-(4,5-dimethylthiazol-2-yl)-2,5-diphenyltetrazolium bromide (MTT) assay was used to determined the antiproliferative activity of dihydroartemisinin-isatin hybrids 5a-e and 6a-j with three-carbon linker against A549, multidrug-resistant A549/DOX and A549/DDP lung cancer cell lines as well as cytotoxicity towards normal lung epithelial cell line (BEAS-2B). The inhibitory effects were expressed in terms of half maximal inhibitory concentration (IC50) values.
(§2) The compounds were dissolved in DMSO with concentrations from 1024 to 1 μg/mL. The NIH/3T3 cells were maintained in culture medium at 37 °C under 5% CO2 atmosphere. Cells were seeded in 96-well plates (1×10^4 cell per well) and allowed to recover for 24 h. After 72 h of exposure, cells were harvested and cell viability was assessed by MTT assay. The CC50 values were calculated by Bliss analysis.

A549 lung cancer cells = assay: MTT antiproliferative activity against A549; format: cell-based; details: MTT assay, drug-sensitive A549
Text: as §1
(§3) A549, A549/DOX, and A549/DDP lung cancer cells (2×10^3) were plated in each well of a 96-well plate and were allowed to adhere and spread for 24 h. The […] were added to a final concentration of 100 µM, and the cells were cultured for 24 h at 37 °C. 3-(4,5-dimethyl-2-thiazolyl)-2,5-diphenyltetrazolium bromide (MTT) solution (10 µL) was added to each well, and the cultures were incubated for an additional 4 h. A further 100 µL of […] was added and incubation continued overnight. The absorbance at 540 nm was determined in each well with a 96-well plate reader. The growth of the treated cells was compared with that of untreated cells.

[1] = system: A549/DOX (doxorubicin-resistant A549 cells); assay: MTT antiproliferative activity against doxorubicin-resistant A549; format: cell-based; details: for IC50: MTT assay, doxorubicin-resistant A549 cells
Text: as §1, §3

[2] = system: A549/DDP (cisplatin-resistant A549 cells); assay: MTT antiproliferative activity against cisplatin-resistant A549; format: cell-based; details: for IC50: MTT assay, cisplatin-resistant A549 cells
Text: as §1, §3

[3] = system: BEAS-2B normal lung epithelial cell line; assay: MTT cytotoxicity towards normal lung epithelial cells; details: IC50(BEAS-2B)/IC50(A549)
Method: as §1, §2

[4] = system: A549, A549/DOX and A549/DDP lung cancer cell lines; assay: MTT antiproliferative activity, summarised over the three lung cancer cell lines; format: cell-based; details: MTT assay, span of values over the three lung cancer cell lines; read-out: IC50 (range over A549, A549/DOX and A549/DDP)
Text: as §1, §3

C[C@@H]1CC[C@H]2[C@@H](C)C(OCCCN3C(=O)C(=O)c4ccccc43)O[C@@H]3O[C@@]4(C)CC[C@@H]1[C@]32OO4 (stereo partly drawn) [5a, 1-(3-(((3R,5aS,6R,8aS,9R,12R,12aR)-3,6,9-trimethyldecahydro-12H-3,12-epoxy[1,2]dioxepino[4,3-i]isochromen-10-yl)oxy)propyl)indoline-2,3-dione]
IC50 (in vitro): > 100 µM | IC50 (A549 lung cancer cells; Homo sapiens): > 100 µM | IC50 ([1]; Homo sapiens): > 100 µM | IC50 ([2]; Homo sapiens): > 100 µM

C[C@@H]1CC[C@H]2[C@@H](C)C(OCCCN3C(=O)C(=O)c4cc(F)ccc43)O[C@@H]3O[C@@]4(C)CC[C@@H]1[C@]32OO4 (stereo partly drawn) [5b, 5-fluoro-1-(3-(((3R,5aS,6R,8aS,9R,12R,12aR)-3,6,9-trimethyldecahydro-12H-3,12-epoxy[1,2]dioxepino[4,3-i]isochromen-10-yl)oxy)propyl)indoline-2,3-dione]
IC50 (in vitro): > 100 µM | IC50 (A549 lung cancer cells; Homo sapiens): > 100 µM | IC50 ([1]; Homo sapiens): > 100 µM | IC50 ([2]; Homo sapiens): > 100 µM

C[C@@H]1CC[C@H]2[C@@H](C)C(OCCCN3C(=O)C(=O)c4cc(Cl)ccc43)O[C@@H]3O[C@@]4(C)CC[C@@H]1[C@]32OO4 (stereo partly drawn) [5c, 5-chloro-1-(3-(((3R,5aS,6R,8aS,9R,12R,12aR)-3,6,9-trimethyldecahydro-12H-3,12-epoxy[1,2]dioxepino[4,3-i]isochromen-10-yl)oxy)propyl)indoline-2,3-dione]
IC50 (in vitro): > 100 µM | SI (Selectivity index: IC50(BEAS-2B)/IC50(A549)) [3]: >1.8 | IC50 (A549 lung cancer cells; Homo sapiens): 53.6 µM | IC50 ([1]; Homo sapiens): 49.7 µM | RI1 (Resistance index: IC50(A549/DOX)/IC50(A549)) [1]: 0.93 | IC50 ([2]; Homo sapiens): 79.8 µM | RI2 (Resistance index: IC50(A549/DDP)/IC50(A549)) [2]: 1.49

Cc1ccc2c(c1)C(=O)C(=O)N2CCCOC1O[C@@H]2O[C@@]3(C)CC[C@H]4[C@H](C)CC[C@@H]([C@H]1C)[C@@]24OO3 (stereo partly drawn) [5d, 5-methyl-1-(3-(((3R,5aS,6R,8aS,9R,12R,12aR)-3,6,9-trimethyldecahydro-12H-3,12-epoxy[1,2]dioxepino[4,3-i]isochromen-10-yl)oxy)propyl)indoline-2,3-dione]
IC50 (in vitro): > 100 µM | IC50 (A549 lung cancer cells; Homo sapiens): > 100 µM | IC50 ([1]; Homo sapiens): > 100 µM | IC50 ([2]; Homo sapiens): > 100 µM

COc1ccc2c(c1)C(=O)C(=O)N2CCCOC1O[C@@H]2O[C@@]3(C)CC[C@H]4[C@H](C)CC[C@@H]([C@H]1C)[C@@]24OO3 (stereo partly drawn) [5e, 5-methoxy-1-(3-(((3R,5aS,6R,8aS,9R,12R,12aR)-3,6,9-trimethyldecahydro-12H-3,12-epoxy[1,2]dioxepino[4,3-i]isochromen-10-yl)oxy)propyl)indoline-2,3-dione]
IC50 (in vitro): > 100 µM | IC50 (A549 lung cancer cells; Homo sapiens): > 100 µM | IC50 ([1]; Homo sapiens): > 100 µM | IC50 ([2]; Homo sapiens): > 100 µM

C[C@@H]1CC[C@H]2[C@@H](C)C(OCCCN3C(=O)C(=NNC(N)=O)c4ccccc43)O[C@@H]3O[C@@]4(C)CC[C@@H]1[C@]32OO4 (stereo partly drawn) [6b, 2-(2-oxo-1-(3-(((3R,5aS,6R,8aS,9R,12R,12aR)-3,6,9-trimethyldecahydro-12H-3,12-epoxy[1,2]dioxepino[4,3-i]isochromen-10-yl)oxy)propyl)indolin-3-ylidene)hydrazine-1-carboxamide]
IC50 (in vitro): > 100 µM | IC50 (A549 lung cancer cells; Homo sapiens): > 100 µM | IC50 ([1]; Homo sapiens): > 100 µM | IC50 ([2]; Homo sapiens): > 100 µM

C[C@@H]1CC[C@H]2[C@@H](C)C(OCCCN3C(=O)C(=NNC(N)=S)c4ccccc43)O[C@@H]3O[C@@]4(C)CC[C@@H]1[C@]32OO4 (stereo partly drawn) [6c, 2-(2-oxo-1-(3-(((3R,5aS,6R,8aS,9R,12R,12aR)-3,6,9-trimethyldecahydro-12H-3,12-epoxy[1,2]dioxepino[4,3-i]isochromen-10-yl)oxy)propyl)indolin-3-ylidene)hydrazine-1-carbothioamide]
IC50 (in vitro): > 100 µM | SI (Selectivity index: IC50(BEAS-2B)/IC50(A549)) [3]: >4.3 | IC50 (A549 lung cancer cells; Homo sapiens): 23.2 µM | IC50 ([1]; Homo sapiens): 36.6 µM | RI1 (Resistance index: IC50(A549/DOX)/IC50(A549)) [1]: 1.57 | IC50 ([2]; Homo sapiens): 28.8 µM | RI2 (Resistance index: IC50(A549/DDP)/IC50(A549)) [2]: 1.24

C[C@@H]1CC[C@H]2[C@@H](C)C(OCCCN3C(=O)C(=NNC(N)=O)c4cc(F)ccc43)O[C@@H]3O[C@@]4(C)CC[C@@H]1[C@]32OO4 (stereo partly drawn) [6d, 2-(5-fluoro-2-oxo-1-(3-(((3R,5aS,6R,8aS,9R,12R,12aR)-3,6,9-trimethyldecahydro-12H-3,12-epoxy[1,2]dioxepino[4,3-i]isochromen-10-yl)oxy)propyl)indolin-3-ylidene)hydrazine-1-carboxamide]
IC50 (in vitro): > 100 µM | IC50 (A549 lung cancer cells; Homo sapiens): > 100 µM | IC50 ([1]; Homo sapiens): > 100 µM | IC50 ([2]; Homo sapiens): > 100 µM

C[C@@H]1CC[C@H]2[C@@H](C)C(OCCCN3C(=O)C(=NO)c4cc(Cl)ccc43)O[C@@H]3O[C@@]4(C)CC[C@@H]1[C@]32OO4 (stereo partly drawn) [6f, 5-chloro-3-(hydroxyimino)-1-(3-(((3R,5aS,6R,8aS,9R,12R,12aR)-3,6,9-trimethyldecahydro-12H-3,12-epoxy[1,2]dioxepino[4,3-i]isochromen-10-yl)oxy)propyl)indolin-2-one]
IC50 (in vitro): > 100 µM | SI (Selectivity index: IC50(BEAS-2B)/IC50(A549)) [3]: >4.0 | IC50 (A549 lung cancer cells; Homo sapiens): 24.7 µM | IC50 ([1]; Homo sapiens): 26.9 µM | RI1 (Resistance index: IC50(A549/DOX)/IC50(A549)) [1]: 1.08 | IC50 ([2]; Homo sapiens): 31.9 µM | RI2 (Resistance index: IC50(A549/DDP)/IC50(A549)) [2]: 1.29

Cc1ccc2c(c1)C(=NO)C(=O)N2CCCOC1O[C@@H]2O[C@@]3(C)CC[C@H]4[C@H](C)CC[C@@H]([C@H]1C)[C@@]24OO3 (stereo partly drawn) [6g, 3-(hydroxyimino)-5-methyl-1-(3-(((3R,5aS,6R,8aS,9R,12R,12aR)-3,6,9-trimethyldecahydro-12H-3,12-epoxy[1,2]dioxepino[4,3-i]isochromen-10-yl)oxy)propyl)indolin-2-one]
IC50 (in vitro): > 100 µM | SI (Selectivity index: IC50(BEAS-2B)/IC50(A549)) [3]: >1.8 | IC50 (A549 lung cancer cells; Homo sapiens): 55.5 µM | IC50 ([1]; Homo sapiens): 29.9 µM | RI1 (Resistance index: IC50(A549/DOX)/IC50(A549)) [1]: 0.54 | IC50 ([2]; Homo sapiens): 49.7 µM | RI2 (Resistance index: IC50(A549/DDP)/IC50(A549)) [2]: 0.89

Cc1ccc2c(c1)C(=NNC(N)=S)C(=O)N2CCCOC1O[C@@H]2O[C@@]3(C)CC[C@H]4[C@H](C)CC[C@@H]([C@H]1C)[C@@]24OO3 (stereo partly drawn) [6h, 2-(5-methyl-2-oxo-1-(3-(((3R,5aS,6R,8aS,9R,12R,12aR)-3,6,9-trimethyldecahydro-12H-3,12-epoxy[1,2]dioxepino[4,3-i]isochromen-10-yl)oxy)propyl)indolin-3-ylidene)hydrazine-1-carbothioamide]
IC50 (in vitro): > 100 µM | SI (Selectivity index: IC50(BEAS-2B)/IC50(A549)) [3]: >1.0 | IC50 (A549 lung cancer cells; Homo sapiens): 99.6 µM | IC50 ([1]; Homo sapiens): 87.3 µM | RI1 (Resistance index: IC50(A549/DOX)/IC50(A549)) [1]: 0.88 | IC50 ([2]; Homo sapiens): 94.2 µM | RI2 (Resistance index: IC50(A549/DDP)/IC50(A549)) [2]: 0.95

COc1ccc2c(c1)C(=NO)C(=O)N2CCCOC1O[C@@H]2O[C@@]3(C)CC[C@H]4[C@H](C)CC[C@@H]([C@H]1C)[C@@]24OO3 (stereo partly drawn) [6i, 3-(hydroxyimino)-5-methoxy-1-(3-(((3R,5aS,6R,8aS,9R,12R,12aR)-3,6,9-trimethyldecahydro-12H-3,12-epoxy[1,2]dioxepino[4,3-i]isochromen-10-yl)oxy)propyl)indolin-2-one]
IC50 (in vitro): > 100 µM | SI (Selectivity index: IC50(BEAS-2B)/IC50(A549)) [3]: >1.9 | IC50 (A549 lung cancer cells; Homo sapiens): 51.6 µM | IC50 ([1]; Homo sapiens): 73.5 µM | IC50 ([2]; Homo sapiens): 60.2 µM | RI2 (Resistance index: IC50(A549/DDP)/IC50(A549)) [2]: 1.17

COc1ccc2c(c1)C(=NNC(N)=S)C(=O)N2CCCOC1O[C@@H]2O[C@@]3(C)CC[C@H]4[C@H](C)CC[C@@H]([C@H]1C)[C@@]24OO3 (stereo partly drawn) [6j, 2-(5-methoxy-2-oxo-1-(3-(((3R,5aS,6R,8aS,9R,12R,12aR)-3,6,9-trimethyldecahydro-12H-3,12-epoxy[1,2]dioxepino[4,3-i]isochromen-10-yl)oxy)propyl)indolin-3-ylidene)hydrazine-1-carbothioamide]
IC50 (in vitro): > 100 µM | SI (Selectivity index: IC50(BEAS-2B)/IC50(A549)) [3]: >1.9 | IC50 (A549 lung cancer cells; Homo sapiens): 52.6 µM | IC50 ([1]; Homo sapiens): 78.5 µM | IC50 ([2]; Homo sapiens): 40.7 µM | RI2 (Resistance index: IC50(A549/DDP)/IC50(A549)) [2]: 0.77

C[C@@H]1CC[C@H]2[C@@H](C)C(=O)O[C@@H]3O[C@@]4(C)CC[C@@H]1[C@]32OO4 [Artemisinin]
IC50 [4]: > 100 µM | IC50 (in vitro; BEAS-2B normal lung epithelial cells): > 100 µM | IC50 (A549 lung cancer cells; Homo sapiens): > 100 µM | IC50 ([1]; Homo sapiens): > 100 µM | IC50 ([2]; Homo sapiens): > 100 µM

C[C@H]1[C@@H](O)O[C@@H]2O[C@@]3(C)CC[C@H]4[C@H](C)CC[C@@H]1[C@@]24OO3 [DHA, Dihydroartemisinin]
IC50 [4]: 69.4 to 88 µM | IC50 (in vitro): > 100 µM | SI (Selectivity index: IC50(BEAS-2B)/IC50(A549)) [3]: >1.4 | IC50 (A549 lung cancer cells; Homo sapiens): 69.4 µM | IC50 ([1]; Homo sapiens): 88 µM | RI1 (Resistance index: IC50(A549/DOX)/IC50(A549)) [1]: 1.27 | IC50 ([2]; Homo sapiens): 75.9 µM | RI2 (Resistance index: IC50(A549/DDP)/IC50(A549)) [2]: 1.09

N.N.[Cl][Pt][Cl] [cisplatin, reference compound]
IC50 [4]: 9.38 to 66.9 µM | IC50 (A549 lung cancer cells): 9.38 µM | IC50 [1]: 19.7 µM | IC50 [2]: 66.9 µM

COc1cccc2c1C(=O)c1c(O)c3c(c(O)c1C2=O)C[C@@](O)(C(=O)CO)C[C@@H]3O[C@H]1C[C@H](N)[C@H](O)[C@H](C)O1 [doxorubicin, reference compound]
IC50 [4]: 4.06 to 54.3 µM | IC50 (in vitro): 93.8 µM | IC50 (A549 lung cancer cells; Homo sapiens): 4.06 µM | IC50 ([1]; Homo sapiens): 54.3 µM | IC50 ([2]; Homo sapiens): 15.1 µM
